From the supplement of paper PMC10331698
± gives the standard deviation of the averaged measurements.

Tests used:
Assay in all cases: level (log10 ratio to DMSO vehicle control); higher = higher biomarker level / cell amount than vehicle control
[1] = compound: C=CC(=O)OCC(F)(F)C(F)(F)C(F)(F)COC(=O)C=C [1H,1H,5H,5H-Perfluoro-1,5-pentanediol diacrylate]; conditions: 6700 nM; in DMSO
Description: (§1)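 BioMAP Diversity Plus panel of 12 human primary cell co-culture systems (3C, 4H, LPS, SAg, BT, BF4T, BE3C, CASM3C, HDF3CGF, KF3CT, MyoF, Mphg). Compounds were added 1 h before stimulation and left for 24 h (MyoF 48 h; BT 72 h for soluble read-outs or 6 d for IgG). Biomarkers were read by ELISA, cytotoxicity by SRB, PBMC viability and proliferation by Alamar Blue. Each well value was divided by the mean of 8 DMSO control wells on the same plate and log10 transformed; duplicate blinded samples were tested at 4 concentrations.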

[2] = compound: NC(=O)C(F)(F)C(F)(F)C(F)(F)C(F)(F)F [Nonafluoropentanamide]; conditions: in DMSO
Description: as §1

[3] = compound: NC(=O)C(F)(F)C(F)(F)C(F)(F)C(F)(F)C(N)=O [Octafluoroadipamide]; conditions: in DMSO
Description: as §1

[4] = compound: FC(F)(F)C(F)(F)C(F)(F)CC1CO1 [1H,1H-Heptafluorobutyl epoxide]; conditions: in DMSO
Description: as §1

[5] = compound: COC(=O)C(F)(F)C(F)(F)OC(F)(C(F)(F)F)C(F)(F)OC(F)=C(F)F [Methyl perfluoro(3-(1-ethenyloxypropan-2-yloxy)propanoate)]; conditions: in DMSO
Description: as §1

[6] = compound: C=C(C)C(=O)OCCC(F)(F)C(F)(F)C(F)(F)C(F)(F)C(F)(F)C(F)(F)F [6:2 Fluorotelomer methacrylate]; conditions: in DMSO
Description: as §1

[7] = compound: FC(F)(F)C(F)(F)C(F)(F)C(F)(F)C(F)(F)C(F)(F)CC1CO1 [3-(Perfluorohexyl)-1,2-epoxypropane]; conditions: in DMSO
Description: as §1

[8] = compound: NS(=O)(=O)C(F)(F)C(F)(F)C(F)(F)C(F)(F)C(F)(F)C(F)(F)F [Perfluorohexanesulfonamide]; conditions: in DMSO
Description: as §1

[9] = compound: NC(=O)C(F)(F)C(F)(F)C(F)(F)C(F)F; conditions: in DMSO
Description: as §1

[10] = compound: O=S(=O)(O)CCC(F)(F)C(F)(F)C(F)(F)C(F)(F)C(F)(F)C(F)(F)F [6:2 Fluorotelomer sulfonic acid]; conditions: in DMSO
Description: as §1

[11] = compound: O=S(=O)(O)C(F)(F)C(F)(F)C(F)(F)C(F)(F)C(F)(F)C(F)(F)C(F)(F)C(F)(F)C(F)(F)C(F)(F)F [Sodium perfluorodecanesulfonate]; conditions: in DMSO
Description: as §1

[12] = compound: FC(F)(F)C(F)(F)CNCC(F)(F)C(F)(F)F [Bis(1H,1H-perfluoropropyl)amine]; conditions: in DMSO
Description: as §1

[13] = compound: FC(F)(F)C(F)(F)C(F)(F)CI [Heptafluorobutyl iodide]; conditions: in DMSO
Description: as §1

[14] = compound: O=S(=O)(Cl)C(F)(F)C(F)(F)C(F)(F)C(F)(F)C(F)(F)C(F)(F)C(F)(F)C(F)(F)F [Perfluoro-1-octanesulfonyl chloride]; conditions: in DMSO
Description: as §1

[15] = compound: O=C(O)C(F)(F)C(F)(F)C(F)(F)C(F)(F)C(F)(F)C(F)(F)C(F)(F)C(F)(F)C(F)(F)C(F)F [11-H-Perfluoroundecanoic acid]; conditions: in DMSO
Description: as §1

[16] = compound: O=C(O)C=CC(F)(C(F)(F)F)C(F)(F)F [3-(Perfluoroisopropyl)-2-propenoic acid]; conditions: in DMSO
Description: as §1

[17] = compound: OCC(F)(F)C(F)(F)C(F)(F)CO [Hexafluoroamylene glycol]; conditions: in DMSO
Description: as §1

[18] = compound: O=S(=O)(F)C(F)(F)C(F)(F)C(F)(F)C(F)(F)C(F)(F)C(F)(F)C(F)(F)C(F)(F)F [Perfluorooctanesulfonyl fluoride]; conditions: in DMSO
Description: as §1

[19] = compound: FC(F)(F)C(F)(F)C(F)(F)C(F)(F)C(F)(F)C(F)(F)C(F)(F)I [1-Iodopentadecafluoroheptane]; conditions: in DMSO
Description: as §1

In the case of LPS:CD142/Tissue Factor, the “level (log10)” value [1] is reported as -0.107 ± 0.03, the “level (log10)” value ([2]; 6700 nM) is reported as 0.0085 ± 0.019 and the “level (log10)” value ([2]; 20000 nM) is reported as 0.0165 ± 0.0078. The “level (log10)” value ([2]; 60000 nM) was -0.013 ± 0.017, the “level (log10)” value ([3]; 6700 nM) was -0.0225 ± 0.077 and the “level (log10)” value ([3]; 20000 nM) was -0.004 ± 0.025. For the same test system, the “level (log10)” value ([3]; 60000 nM) was 0.057 ± 0.025, the “level (log10)” value ([4]; 6700 nM) was 0.011 ± 0.014 and the “level (log10)” value ([4]; 20000 nM) was 0.0085 ± 0.018. The “level (log10)” value ([4]; 60000 nM) was 0.015 ± 0.0085, the “level (log10)” value ([5]; 6700 nM) was -0.0235 ± 0.00071 and the “level (log10)” value ([5]; 20000 nM) was 0.009 ± 0.011. The “level (log10)” value ([6]; 6700 nM) was 0.007 ± 0.09, the “level (log10)” value ([6]; 20000 nM) was 0.0765 ± 0.043 and the “level (log10)” value ([6]; 60000 nM) was 0.0165 ± 0.098. The “level (log10)” value ([7]; 6700 nM) was -0.023 ± 0.0057, the “level (log10)” value ([7]; 20000 nM) was -0.0095 ± 0.032 and the “level (log10)” value ([7]; 60000 nM) was 0.0015 ± 0.039. For the same test system, the “level (log10)” value ([8]; 6700 nM) was 0.0095 ± 0.025, the “level (log10)” value ([8]; 20000 nM) was 0.012 ± 0.0085 and the “level (log10)” value ([8]; 60000 nM) was 0.022 ± 0.0071. The “level (log10)” value ([9]; 6700 nM) was -0.0215 ± 0.00071, the “level (log10)” value ([9]; 20000 nM) was 0.005 ± 0.0028 and the “level (log10)” value ([9]; 60000 nM) was -0.007 ± 0.0014. The “level (log10)” value ([10]; 6700 nM) was -0.0015 ± 0.064, the “level (log10)” value ([10]; 20000 nM) was 0.02 ± 0.0085 and the “level (log10)” value ([10]; 60000 nM) was 0.0275 ± 0.026. For the same test system, the “level (log10)” value ([11]; 1500 nM) was -0.0155 ± 0.043, the “level (log10)” value ([11]; 4400 nM) was -0.011 ± 0.021 and the “level (log10)” value ([11]; 13000 nM) was -0.06 ± 0.0042. For the same test system, the “level (log10)” value ([11]; 40000 nM) was -0.177 ± 0.1, the “level (log10)” value ([12]; 6700 nM) was 0.019 ± 0.073 and the “level (log10)” value ([12]; 20000 nM) was -0.007 ± 0.099. For the same test system, the “level (log10)” value ([12]; 60000 nM) was 0.0095 ± 0.13, the “level (log10)” value ([13]; 6700 nM) was -0.046 ± 0.1 and the “level (log10)” value ([13]; 20000 nM) was -0.013 ± 0.082. For the same test system, the “level (log10)” value ([13]; 60000 nM) was 0.0295 ± 0.043, the “level (log10)” value ([14]; 6700 nM) was -0.023 ± 0.055 and the “level (log10)” value ([14]; 20000 nM) was 0.0075 ± 0.0078. The “level (log10)” value ([14]; 60000 nM) was 0.11 ± 0.0092, the “level (log10)” value ([15]; 6700 nM) was 0.012 ± 0.034 and the “level (log10)” value ([15]; 20000 nM) was -0.033 ± 0.041. The “level (log10)” value ([16]; 6700 nM) was 0.0105 ± 0.0078, the “level (log10)” value ([16]; 20000 nM) was -0.021 ± 0.025 and the “level (log10)” value ([16]; 60000 nM) was 0.006 ± 0.021. The “level (log10)” value ([17]; 6700 nM) was 0.0025 ± 0.087, the “level (log10)” value ([17]; 20000 nM) was 0.041 ± 0.081 and the “level (log10)” value ([17]; 60000 nM) was 0.021 ± 0.082. The “level (log10)” value ([18]; 6700 nM) was -0.0015 ± 0.0064, the “level (log10)” value ([18]; 20000 nM) was 0.018 ± 0.011 and the “level (log10)” value ([18]; 60000 nM) was -0.0065 ± 0.019. The “level (log10)” value ([19]; 6700 nM) was 0.0105 ± 0.07 and the “level (log10)” value ([19]; 20000 nM) was 0.036 ± 0.02.
For BF4T:CD54/ICAM-1, the “level (log10)” value [1] was -0.084 ± 0.011, the “level (log10)” value ([2]; 6700 nM) was -0.003 ± 0.0028 and the “level (log10)” value ([2]; 20000 nM) was -0.0005 ± 0.00071. For the same test system, the “level (log10)” value ([2]; 60000 nM) was 0.007 ± 0.0099, the “level (log10)” value ([3]; 6700 nM) was -0.015 ± 0.023 and the “level (log10)” value ([3]; 20000 nM) was -0.017 ± 0.021. For the same test system, the “level (log10)” value ([3]; 60000 nM) was 0.009 ± 0.016, the “level (log10)” value ([4]; 6700 nM) was -0.027 ± 0.016 and the “level (log10)” value ([4]; 20000 nM) was -0.003 ± 0.035. For the same test system, the “level (log10)” value ([4]; 60000 nM) was -0.0245 ± 0.018, the “level (log10)” value ([5]; 6700 nM) was -0.0215 ± 0.011 and the “level (log10)” value ([5]; 20000 nM) was -0.0265 ± 0.0064. For the same test system, the “level (log10)” value ([6]; 6700 nM) was -0.019 ± 0.0042, the “level (log10)” value ([6]; 20000 nM) was -0.0045 ± 0.026 and the “level (log10)” value ([6]; 60000 nM) was -0.0195 ± 0.0035. For the same test system, the “level (log10)” value ([7]; 6700 nM) was -0.002 ± 0.0057, the “level (log10)” value ([7]; 20000 nM) was 0.0025 ± 0.0021 and the “level (log10)” value ([7]; 60000 nM) was 0.007. For the same test system, the “level (log10)” value ([8]; 6700 nM) was -0.015 ± 0.0014, the “level (log10)” value ([8]; 20000 nM) was -0.0375 ± 0.0064 and the “level (log10)” value ([8]; 60000 nM) was -0.0645 ± 0.0078. The “level (log10)” value ([9]; 6700 nM) was -0.0105 ± 0.015, the “level (log10)” value ([9]; 20000 nM) was -0.0095 ± 0.022 and the “level (log10)” value ([9]; 60000 nM) was -0.0045 ± 0.0021. The “level (log10)” value ([10]; 6700 nM) was -0.0115 ± 0.00071, the “level (log10)” value ([10]; 20000 nM) was -0.015 ± 0.021 and the “level (log10)” value ([10]; 60000 nM) was -0.0095 ± 0.018. For the same test system, the “level (log10)” value ([11]; 1500 nM) was -0.019 ± 0.0071, the “level (log10)” value ([11]; 4400 nM) was -0.031 ± 0.016 and the “level (log10)” value ([11]; 13000 nM) was -0.014 ± 0.014. The “level (log10)” value ([11]; 40000 nM) was -0.0105 ± 0.025, the “level (log10)” value ([12]; 6700 nM) was -0.0035 ± 0.0021 and the “level (log10)” value ([12]; 20000 nM) was -0.013 ± 0.0014. The “level (log10)” value ([12]; 60000 nM) was 0.001 ± 0.04, the “level (log10)” value ([13]; 6700 nM) was -0.012 ± 0.011 and the “level (log10)” value ([13]; 20000 nM) was -0.008 ± 0.016. For the same test system, the “level (log10)” value ([13]; 60000 nM) was -0.003 ± 0.031, the “level (log10)” value ([14]; 6700 nM) was -0.011 ± 0.0085 and the “level (log10)” value ([14]; 20000 nM) was -0.023. For the same test system, the “level (log10)” value ([14]; 60000 nM) was -0.084, the “level (log10)” value ([15]; 6700 nM) was -0.0375 ± 0.0021 and the “level (log10)” value ([15]; 20000 nM) was -0.104 ± 0.016. For the same test system, the “level (log10)” value ([16]; 6700 nM) was 0.007 ± 0.0042, the “level (log10)” value ([16]; 20000 nM) was -0.0005 ± 0.025 and the “level (log10)” value ([16]; 60000 nM) was 0.011 ± 0.0028. The “level (log10)” value ([17]; 6700 nM) was -0.0145 ± 0.005, the “level (log10)” value ([17]; 20000 nM) was -0.0045 ± 0.015 and the “level (log10)” value ([17]; 60000 nM) was 0.009 ± 0.014. For the same test system, the “level (log10)” value ([18]; 6700 nM) was -0.002 ± 0.0014, the “level (log10)” value ([18]; 20000 nM) was -0.006 and the “level (log10)” value ([18]; 60000 nM) was -0.0045 ± 0.0021. For the same test system, the “level (log10)” value ([19]; 6700 nM) was 0.004 ± 0.011 and the “level (log10)” value ([19]; 20000 nM) was -0.0025 ± 0.013.
